From the NIST ThermoML archive (doi:10.1021/acs.jced.6b01071)
Numbers after ± are expanded uncertainties.

Columns and labels:
[1] = Liquid; for mass density: 298.15 K, 101.33 kPa, Vibrating tube method; for vapor or sublimation pressure: Ebulliometric method (Recirculating still)
[2] = Boiling temperature at pressure P; conditions: 101.3 kPa; Liquid; Ebulliometric method (Recirculating still)
[3] = refractive index (Na D-line) (dimensionless); conditions: 298.15 K; 101.33 kPa; Liquid; Standard Abbe refractometry

| SMILES | mass density [1] | vapor or sublimation pressure ([1]; 381.15 K) | vapor or sublimation pressure ([1]; 381.41 K) | vapor or sublimation pressure ([1]; 395.9 K) | vapor or sublimation pressure ([1]; 396.04 K) | vapor or sublimation pressure ([1]; 406.39 K) | vapor or sublimation pressure ([1]; 406.59 K) | Boiling temperature at pressure P [2] | refractive index [3] | vapor or sublimation pressure ([1]; 384.76 K) | vapor or sublimation pressure ([1]; 400.65 K) | vapor or sublimation pressure ([1]; 411.56 K) | vapor or sublimation pressure ([1]; 309.68 K) | vapor or sublimation pressure ([1]; 320.76 K) | vapor or sublimation pressure ([1]; 328.55 K) |
| --- | --- | --- | --- | --- | --- | --- | --- | --- | --- | --- | --- | --- | --- | --- | --- |
| COCC(C)OC(C)=O (stereo unspecified) [1-methoxy-2-propyl acetate] | 961.52 ± 5 kg/m3 | 30 ± 1 kPa | 30 ± 1 kPa | 50 ± 1 kPa | 50 ± 1 kPa | 70 ± 1 kPa | 70 ± 1 kPa | 145.57 ± 0.2 °C | 1.3986 ± 0.01 |  |  |  |  |  |  |
| CN(C)C=O [dimethylformamide] | 943.89 ± 5 kg/m3 |  |  |  |  |  |  | 153.50 ± 0.2 °C | 1.4277 ± 0.01 | 30 ± 1 kPa | 50 ± 1 kPa | 70 ± 1 kPa |  |  |  |
| CO [methanol] | 786.59 ± 5 kg/m3 |  |  |  |  |  |  | 64.48 ± 0.2 °C | 1.3264 ± 0.01 |  |  |  | 30 ± 1 kPa | 50 ± 1 kPa | 70 ± 1 kPa |
